Test results taken from patent US20140213576A1, “NOVEL COMPOUND USEFUL FOR THE TREATMENT OF DEGENERATIVE AND INFLAMMATORY DISEASES” (GALAPAGOS NV, priority 2013, published 2014).
Values joined by “and” are separate entries in the source; they are usually repeats but may differ in a detail not shown here. Equal entries are not always repeated.

Assays:
Format in all cases: biochemical
[1] = target: T1, Recombinant human JAK1 (catalytic domain, amino acids 866-1154) (Homo sapiens, UniProt P23458); experiment: JAK1 Ulight-JAK1 peptide assay
T1 construct: Recombinant human JAK1 (catalytic domain, amino acids 866-1154; catalog number PV4774); purchased Invitrogen PV4774
T1 sequence (P23458 866-1154): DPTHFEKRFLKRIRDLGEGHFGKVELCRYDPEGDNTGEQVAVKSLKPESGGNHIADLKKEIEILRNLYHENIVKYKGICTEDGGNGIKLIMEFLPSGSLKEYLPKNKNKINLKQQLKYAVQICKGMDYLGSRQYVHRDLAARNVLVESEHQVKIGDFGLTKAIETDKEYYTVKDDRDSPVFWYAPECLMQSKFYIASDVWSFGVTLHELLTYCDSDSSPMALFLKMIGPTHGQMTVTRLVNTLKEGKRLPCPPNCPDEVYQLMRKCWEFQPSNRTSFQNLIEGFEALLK
Description: Recombinant human JAK1 (catalytic domain, amino acids 866-1154; catalog number PV4774) was purchased from Invitrogen. 1 ng of JAK1 was incubated with 20 nM Ulight-JAK1(tyr1023) peptide (Perkin Elmer catalog number TRF0121) in kinase reaction buffer (25 mM MOPS pH6.8, 0.01% Brij-35, 5 mM MgCl2, 2 mM DTT, 7 μM ATP) with or without 4 μL containing test compound or vehicle (DMSO, 1% final concentration), in a total volume of 20 μL, in a white 384 Opti plate (Perkin Elmer, catalog number 6007290). After 60 min at room temperature, reactions were stopped by adding 20 μL/well of detection mixture (1× detection buffer (Perkin Elmer, catalog number CR97-100C), 0.5 nM Europium-anti-phosphotyrosine (PT66) (Perkin Elmer, catalog number AD0068), 10 mM EDTA). Readout is performed using the Envision with excitation at 320 nm and measuring emission at 615 nm (Perkin Elmer). Kinase activity was calculated by subtracting relative fluorescence units (RFU) obtained in the presence of a positive control inhibitor (10 μM staurosporine) from RFU obtained in the presence of vehicle. The ability of a test compound to inhibit this activity was determined as:
Percentage inhibition=((RFU determined for sample with test compound present−RFU determined for sample with positive control inhibitor) divided by (RFU determined in the presence of vehicle−RFU determined for sample with positive control inhibitor))*100.
Dose dilution series were prepared for the compounds enabling the testing of dose-response effects in the JAK1 assay and the calculation of the IC50 for the compound. Each compound is routinely tested at concentration of 20 μM followed by a ⅕ serial dilution, 10 points in a final concentration of 1% DMSO. […] The data are expressed as the average IC50 from the assays±standard error of the mean.

JAK1 = target: T2, JAK1 (Homo sapiens, UniProt P23458); experiment: JAK1 Ki determination assay; conditions: Lineweaver-Burk, varying ATP, Ulight-JAK-1 peptide; read-out: Ki against JAK1
T2 construct: Recombinant human JAK1 (catalytic domain, amino acids 866-1154; catalog number PV4774); purchased Invitrogen PV4774
T2 sequence (P23458 866-1154): as above
Description: For the determination of Ki, different amounts of compound were mixed with the enzyme and the enzymatic reaction was followed as a function of ATP concentration. The Ki was determined by means of double reciprocal plotting of Km vs compound concentration (Lineweaver-Burk plot). 1 ng of JAK1 (Invitrogen, PV4774) is used in the assay. The substrate was 50 nM Ulight-JAK-1 (Tyr1023) Peptide (Perkin Elmer, TRF0121) The reaction is performed in 25 mM MOPS pH 6.8, 0.01%, 2 mM DTT, 5 mM MgCl2 Brij-35 with varying concentrations of ATP and compound. Phosphorylated substrate was measured using an Eu-labeled anti-phosphotyrosine antibody PT66 (Perkin Elmer, AD0068) as described in 1.1.2. Readout was performed on the envision (Perkin Elmer) with excitation at 320 nm and emission followed at 615 nm and 665 nm.

JAK3 = target: T3, JAK3 (Homo sapiens, UniProt P52333); experiment: JAK3 Ki determination assay; conditions: Lineweaver-Burk, varying ATP, polyGT substrate; read-out: Ki against JAK3
T3 construct: purchased Carna Biosciences 09CBS-0625B
T3 sequence (P52333 1-1124): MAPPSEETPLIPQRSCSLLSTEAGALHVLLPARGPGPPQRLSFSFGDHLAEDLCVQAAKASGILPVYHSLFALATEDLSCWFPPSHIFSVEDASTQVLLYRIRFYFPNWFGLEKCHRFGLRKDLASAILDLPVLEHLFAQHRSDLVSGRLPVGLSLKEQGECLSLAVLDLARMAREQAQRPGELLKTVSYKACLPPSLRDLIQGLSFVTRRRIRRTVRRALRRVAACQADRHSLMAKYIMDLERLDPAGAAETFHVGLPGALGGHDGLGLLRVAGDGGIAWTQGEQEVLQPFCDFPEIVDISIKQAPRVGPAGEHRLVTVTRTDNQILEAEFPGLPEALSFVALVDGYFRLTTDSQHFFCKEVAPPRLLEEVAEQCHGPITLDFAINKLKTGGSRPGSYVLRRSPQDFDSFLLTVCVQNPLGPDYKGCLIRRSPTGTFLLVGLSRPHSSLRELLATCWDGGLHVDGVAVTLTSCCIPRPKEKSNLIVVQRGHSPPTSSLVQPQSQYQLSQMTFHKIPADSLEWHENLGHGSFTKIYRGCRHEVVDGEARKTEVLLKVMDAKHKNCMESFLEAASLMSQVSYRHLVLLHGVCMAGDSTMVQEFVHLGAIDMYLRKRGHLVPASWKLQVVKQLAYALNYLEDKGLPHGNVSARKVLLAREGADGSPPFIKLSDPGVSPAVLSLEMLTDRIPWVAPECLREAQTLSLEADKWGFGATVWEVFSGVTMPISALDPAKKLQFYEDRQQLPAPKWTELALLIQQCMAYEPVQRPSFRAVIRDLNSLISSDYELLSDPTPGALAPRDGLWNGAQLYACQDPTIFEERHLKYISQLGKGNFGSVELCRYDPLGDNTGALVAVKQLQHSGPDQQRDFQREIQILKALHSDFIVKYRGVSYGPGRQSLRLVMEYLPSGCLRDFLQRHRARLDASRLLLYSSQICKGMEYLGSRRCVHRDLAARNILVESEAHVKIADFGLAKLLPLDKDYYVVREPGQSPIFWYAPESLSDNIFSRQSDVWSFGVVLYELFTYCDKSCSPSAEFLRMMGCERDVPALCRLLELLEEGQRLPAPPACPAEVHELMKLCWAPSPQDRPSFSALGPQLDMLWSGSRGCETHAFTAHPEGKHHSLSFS
Description: For the determination of Ki, different amounts of compound were mixed with the enzyme and the enzymatic reaction was followed as a function of ATP concentration. The Ki was determined by means of double reciprocal plotting of Km vs compound concentration (Lineweaver-Burk plot). JAK3 (Carna Biosciences, 09CBS-0625B) was used at a final concentration of 10 ng/mL. The substrate was Poly(Glu,Tyr)sodium salt (4:1), MW 20 000-50 000 (Sigma, P0275) The reaction was performed in 25 mM Tris pH 7.5, 0.01% Triton X-100, 0.5 mM EGTA, 2.5 mM DTT, 0.5 mM Na3VO4, 5 mM b-glycerolphosphate, 10 mM MgCl2 with varying concentrations of ATP and compound and stopped by addition of 150 mM phosphoric acid. Measurement of incorporated phosphate into the substrate polyGT was done by loading the samples on a filter plate (using a harvester, Perkin Elmer) and subsequent washing. Incorporated ^33P in polyGT was measured in a Topcount scintillation counter after addition of scintillation liquid to the filter plates (Perkin Elmer).

selectivity for JAK1 vs the other JAK family members (JAK2, JAK3, and TYK2) [1]: at least 10 fold | IC50 ([1]; Ulight-JAK1(tyr1023) peptide, 7 μM ATP, individual determinations, read-out: IC50 against JAK1): 6.59 nM and 7.68 nM and 12.9 nM and 4.47 nM and 10.2 nM and 9.11 nM and 5.42 nM and 8.37 nM and 9.43 nM and 6.94 nM | JAK1 selectivity vs JAK2 ([1]; vs JAK2): > 15 fold | JAK1 selectivity vs JAK3 ([1]; vs JAK3): > 70 fold | JAK1 selectivity vs TYK2 ([1]; vs TYK2): > 80 fold | Ki (JAK1): 9.21 nM | Ki (JAK3): 685 nM
Structure (SMILES): CCc1cc(C2CN(S(C)(=O)=O)C2)ncc1N(C)c1cc2c(cn1)ncn2C [Compound 1, [4-Ethyl-6-(1-methanesulfonyl-azetidin-3-yl)-pyridin-3-yl]-methyl-(1-methyl-1H-imidazo[4,5-d]pyridin-6-yl)-amine]
